Series [1] has as its system cannabinoid CB1 receptors. Details: method as in Kevin et al., 2022. The note with it: ref Kevin et al., 2022; cited from earlier work.
Series [2] is described as follows: Brain concentration after sub-chronic administration in chow. The note with it: 5,000 mg/kg chow ad libitum P18–23, male and female mice, n = 10. In kind it is in vivo, mouse. How it is done: Plasma samples (50 μL) were spiked with an internal standard (diazepam) and vortexed with 1 M NaOH (50 μL) and methyl tert-butyl ether (1 mL) to achieve protein precipitation. The organic layer was isolated by centrifugation (4,000 g for 3 min) before being frozen for 60 min at −80°C, evaporated to dryness using N2, and reconstituted in 30% acetonitrile and 0.1% formic acid in water for analysis. Brain hemispheres were homogenised in a 10x w/v 1:1 methanol-water solution using a Biospec Tissue-Tearor (Bartlesville, United States) and centrifuged at 20,000 g for 30 min at 4°C. Supernatant (100 μL) was collected and prepared following the same method as plasma.
SB2193 and SB2193F concentrations in brain and plasma samples were assessed by high performance liquid chromatography-tandem mass spectrometry (HPLC-MS/MS) using a Shimadzu Nexera liquid chromatograph coupled with a Shimadzu 8,030 triple quadrupole mass spectrometer (Kyoto, Japan). […]
Quantification was achieved by comparing experimental samples to plasma and brain standards prepared with known concentrations of SB2193 or SB2193F. Samples were quantified against a 7-point standard curve (R ^2 > 0.98 for both analytes). […]

For a further series, the target named is T1, human Cav3.3 (Homo sapiens, UniProt Q9P0X4).
T1 construct: expressed in transfected cells; host or cells: HEK293 FlpIn T-Rex cells (Invitrogen)
T1 sequence (Q9P0X4 whole entry): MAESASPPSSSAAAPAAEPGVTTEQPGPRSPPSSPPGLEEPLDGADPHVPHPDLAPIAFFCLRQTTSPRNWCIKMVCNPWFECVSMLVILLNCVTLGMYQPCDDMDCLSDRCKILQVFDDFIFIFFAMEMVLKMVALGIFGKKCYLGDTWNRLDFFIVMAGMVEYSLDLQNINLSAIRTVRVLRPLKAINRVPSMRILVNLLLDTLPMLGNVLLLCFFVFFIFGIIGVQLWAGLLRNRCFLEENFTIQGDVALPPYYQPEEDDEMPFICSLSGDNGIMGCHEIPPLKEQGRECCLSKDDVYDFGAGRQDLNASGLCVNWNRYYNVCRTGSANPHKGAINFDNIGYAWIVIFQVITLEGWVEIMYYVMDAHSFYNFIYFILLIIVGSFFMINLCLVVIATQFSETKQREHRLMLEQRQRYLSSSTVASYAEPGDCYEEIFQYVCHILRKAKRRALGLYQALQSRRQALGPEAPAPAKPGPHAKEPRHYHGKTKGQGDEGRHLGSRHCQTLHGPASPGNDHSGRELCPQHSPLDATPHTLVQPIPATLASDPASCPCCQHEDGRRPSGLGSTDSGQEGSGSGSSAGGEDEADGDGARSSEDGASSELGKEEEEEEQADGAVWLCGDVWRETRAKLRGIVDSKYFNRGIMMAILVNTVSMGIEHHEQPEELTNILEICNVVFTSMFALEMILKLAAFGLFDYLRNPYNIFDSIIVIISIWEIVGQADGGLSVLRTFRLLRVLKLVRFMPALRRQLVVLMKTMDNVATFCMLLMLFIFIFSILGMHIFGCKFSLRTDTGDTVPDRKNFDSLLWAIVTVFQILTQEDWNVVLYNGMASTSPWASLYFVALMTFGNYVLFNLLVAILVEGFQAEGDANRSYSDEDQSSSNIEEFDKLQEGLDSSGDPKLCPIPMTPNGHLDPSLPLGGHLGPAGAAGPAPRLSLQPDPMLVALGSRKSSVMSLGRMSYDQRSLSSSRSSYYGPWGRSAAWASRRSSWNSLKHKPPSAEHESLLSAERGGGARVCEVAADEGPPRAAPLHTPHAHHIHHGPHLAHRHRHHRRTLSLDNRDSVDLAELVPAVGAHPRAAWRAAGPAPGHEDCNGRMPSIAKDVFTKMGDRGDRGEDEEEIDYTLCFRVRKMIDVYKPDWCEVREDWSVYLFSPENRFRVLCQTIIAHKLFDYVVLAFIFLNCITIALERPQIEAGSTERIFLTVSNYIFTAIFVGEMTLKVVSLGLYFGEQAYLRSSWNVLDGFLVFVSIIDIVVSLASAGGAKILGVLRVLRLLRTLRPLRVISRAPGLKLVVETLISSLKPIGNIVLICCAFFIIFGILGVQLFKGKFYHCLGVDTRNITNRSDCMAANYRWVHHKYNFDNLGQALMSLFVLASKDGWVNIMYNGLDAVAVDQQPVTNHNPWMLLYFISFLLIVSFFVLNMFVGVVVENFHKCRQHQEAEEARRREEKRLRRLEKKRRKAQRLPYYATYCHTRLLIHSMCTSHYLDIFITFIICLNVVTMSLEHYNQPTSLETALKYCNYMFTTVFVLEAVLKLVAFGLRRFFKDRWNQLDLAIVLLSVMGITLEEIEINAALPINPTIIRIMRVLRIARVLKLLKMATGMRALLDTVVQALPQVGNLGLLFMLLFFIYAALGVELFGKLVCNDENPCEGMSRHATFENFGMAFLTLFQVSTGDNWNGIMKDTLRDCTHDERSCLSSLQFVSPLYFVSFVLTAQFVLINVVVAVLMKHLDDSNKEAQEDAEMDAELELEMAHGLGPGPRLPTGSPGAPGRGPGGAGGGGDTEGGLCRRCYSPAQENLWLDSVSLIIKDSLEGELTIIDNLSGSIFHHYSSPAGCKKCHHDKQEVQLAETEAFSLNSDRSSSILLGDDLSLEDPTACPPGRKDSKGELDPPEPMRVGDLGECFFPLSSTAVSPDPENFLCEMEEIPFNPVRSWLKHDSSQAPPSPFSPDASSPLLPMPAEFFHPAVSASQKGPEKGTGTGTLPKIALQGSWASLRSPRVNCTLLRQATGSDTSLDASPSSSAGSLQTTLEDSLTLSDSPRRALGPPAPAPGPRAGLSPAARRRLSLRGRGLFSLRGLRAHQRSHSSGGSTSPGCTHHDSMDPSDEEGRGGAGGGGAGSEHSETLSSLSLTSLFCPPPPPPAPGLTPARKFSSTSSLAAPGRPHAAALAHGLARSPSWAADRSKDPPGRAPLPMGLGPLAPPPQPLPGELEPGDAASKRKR
The series is described as follows: FLIPR calcium flux assay, Cav3.3. In kind it is cell-based. How it is done:
HEK293 FlpIn T-Rex cells (Invitrogen, CA, United States) stably expressing human Cav3.1, Cav3.2, or Cav3.3 were maintained in Dulbecco’s Modified Eagle Medium (DMEM) supplemented with 10% foetal bovine serum (FBS), 1% penicillin-streptomycin (P/S) at 37°C, and 5% CO2 as previously described ([Bladen et al., 2021]; [Udoh et al., 2022]). Hygromycin (80 μg/mL) and blasticidin (15 μg/mL) were used as selection antibiotics and cells were passaged at 80% confluency. For experiments, cells were resuspended in Leibovitz’s L-15 media (containing 1% FBS, 1% P/S, 15 mM glucose, 2 μg/mL tetracycline), plated in black, clear-bottomed poly-D-lysine-coated 96-well plates (90 μL) (Corning, NY, United States), and incubated overnight in ambient air at 37°C. All compounds tested in cellular assays were prepared as stock solutions in DMSO and final DMSO concentration was 0.1%.
Intracellular calcium flux was measured using a fluorometric imaging plate-reader (FLIPR) Calcium 5 Assay Kit and FlexStation 3 Microplate Reader (Molecular Devices, San Jose, United States). Calcium 5 dye (90 μL) prepared in low potassium HBSS (Thermo Fisher Scientific) containing (in mM) 145 NaCl, 22 HEPES, 0.338 Na2HPO4, 4.17 NaHCO3, 0.441 KH2PO4, 0.407 MgSO4, 0.493 MgCl2, 1.26 CaCl2, 5.56 glucose, and […] with pH 7.4 was applied to each well and incubated for 1 h at 37°C, ambient air prior to testing.
Fluorescence readings were taken at 2 s intervals (λ excitation = 485 nm, λ emission = 525 nm). Following 2 min baseline reading, 20 μL of SB2193, SB2193F, or NNC 55-0396 (10 nM—10 μM) was added to cells and read for 5 min, then CaCl2 (10 mM) was added and read for 3 min. Baseline fluorescence averaged over the 20 s interval preceding CaCl2 addition was subtracted and normalized to the vehicle response. Changes in fluorescence were measured in relative fluorescence units (RFU). All compounds were assayed in ≥ five independent experiments (n = 5–8) performed in duplicate. Order of compound addition and location on the plate were varied between replicates. Data was fit to a four-parameter non-linear dose-response curve using GraphPad Prism 8.2.0 software (La Jolla, United States) to determine IC50 values.
For orientation: Calcium assays in cells follow changes in intracellular calcium, usually with a dye or a luminescent sensor.

The text below walks through data of publication PMC10110893, “[…]-derived synthetic cannabinoids inhibit T-type calcium channels with divergent effects on seizures in rodent models of epilepsy” (Frontiers in Physiology, 2023).

For orientation: IC50 means the midpoint of a concentration-inhibition curve.

For `CCCCCn1cc(C(=O)N2CCN(C(=O)OC(C)(C)C)CC2)c2ccccc21` [SB2193], in series [1], the “activity at cannabinoid CB1 receptors” value is “minimal activity”. Besides, the brain concentration in series [2] was 1700 ± 600 nM. Moreover, at human Cav3.3, the half-inhibitory concentration (IC50) was determined as 5.4 µM.
